Where “and” joins values, the source holds several entries; their conditions need not be identical. Identical values can stand only once.
Settings: for mass density / vapor or sublimation pressure / viscosity / speed of sound: Liquid; for mass density: Vibrating tube method; for vapor or sublimation pressure: Ebulliometric method (Recirculating still); for surface tension liquid-gas: Drop volume; for viscosity: Capillary tube (Ostwald / Ubbelohde) method; for speed of sound: Frequency=3 MHz, Single path-length method

CCc1ccco1 [2-ethylfuran]
Settings	mass density	speed of sound [m/s]	viscosity [mPa·s]
295.65 K, 100 kPa	901.9 kg/m3	–	–
298.15 K, 100 kPa	899.15 kg/m3 and 899.11 kg/m3	1194.9	0.4917
298.15 K, 2000 kPa	901.01 kg/m3	–	–
298.15 K, 5000 kPa	903.73 kg/m3	–	–
298.15 K, 7000 kPa	905.65 kg/m3	–	–
298.15 K, 10000 kPa	908.34 kg/m3	–	–
298.15 K, 15000 kPa	912.57 kg/m3	–	–
298.15 K, 20000 kPa	916.67 kg/m3	–	–
298.15 K, 25000 kPa	920.61 kg/m3	–	–
298.15 K, 30000 kPa	924.3 kg/m3	–	–
298.15 K, 35000 kPa	928.03 kg/m3	–	–
298.15 K, 40000 kPa	931.52 kg/m3	–	–
298.15 K, 45000 kPa	934.92 kg/m3	–	–
298.15 K, 50000 kPa	938.29 kg/m3	–	–
298.15 K, 55000 kPa	941.41 kg/m3	–	–
298.15 K, 60000 kPa	944.69 kg/m3	–	–
298.15 K, 65000 kPa	947.7 kg/m3	–	–
300.65 K, 100 kPa	896.4 kg/m3	1184.1	0.4774
303.15 K, 100 kPa	893.64 kg/m3 and 893.58 kg/m3	1172.5	0.4637
303.15 K, 2000 kPa	895.61 kg/m3	–	–
303.15 K, 5000 kPa	898.41 kg/m3	–	–
303.15 K, 7000 kPa	900.35 kg/m3	–	–
303.15 K, 10000 kPa	903.06 kg/m3	–	–
303.15 K, 15000 kPa	907.56 kg/m3	–	–
303.15 K, 20000 kPa	911.72 kg/m3	–	–
303.15 K, 25000 kPa	915.8 kg/m3	–	–
303.15 K, 30000 kPa	919.58 kg/m3	–	–
303.15 K, 35000 kPa	923.37 kg/m3	–	–
303.15 K, 40000 kPa	927 kg/m3	–	–
303.15 K, 45000 kPa	930.47 kg/m3	–	–
303.15 K, 50000 kPa	933.84 kg/m3	–	–
303.15 K, 55000 kPa	937.1 kg/m3	–	–
303.15 K, 60000 kPa	940.35 kg/m3	–	–
303.15 K, 65000 kPa	943.48 kg/m3	–	–
305.65 K, 100 kPa	890.87 kg/m3	1161.8	0.45
308.15 K, 100 kPa	888.1 kg/m3 and 888.06 kg/m3	1151.5	0.4372
308.15 K, 2000 kPa	890.15 kg/m3	–	–
308.15 K, 5000 kPa	893.04 kg/m3	–	–
308.15 K, 7000 kPa	895.02 kg/m3	–	–
308.15 K, 10000 kPa	897.93 kg/m3	–	–
308.15 K, 15000 kPa	902.45 kg/m3	–	–
308.15 K, 20000 kPa	906.8 kg/m3	–	–
308.15 K, 25000 kPa	910.98 kg/m3	–	–
308.15 K, 30000 kPa	914.84 kg/m3	–	–
308.15 K, 35000 kPa	918.68 kg/m3	–	–
308.15 K, 40000 kPa	922.47 kg/m3	–	–
308.15 K, 45000 kPa	925.95 kg/m3	–	–
308.15 K, 50000 kPa	929.45 kg/m3	–	–
308.15 K, 55000 kPa	932.76 kg/m3	–	–
308.15 K, 60000 kPa	936.18 kg/m3	–	–
308.15 K, 65000 kPa	939.24 kg/m3	–	–
310.65 K, 100 kPa	885.31 kg/m3	1140.6	0.4258
313.15 K, 100 kPa	–	–	0.4149

Settings	surface tension liquid-gas [mN/m]	vapor or sublimation pressure [kPa]
295.94 K	–	6.77
297.39 K	–	7.29
298.15 K	24.78	–
299.52 K	–	8.105
300.65 K	24.43	–
301.86 K	–	9.08
303.15 K	24.12	–
304.58 K	–	10.35
305.65 K	23.81	–
306.32 K	–	11.27
308.15 K	23.51	–
308.82 K	–	12.64
310.65 K	23.22	–
312.73 K	–	15.06
313.15 K	22.91	–
